Measured values reported in PubChem BioAssay AID1259407 (Chemical Carcinogenesis Research Information System (CCRIS), 2018).
Activity calls are given as the source filed them. The rule behind the calls is not given here.

Test system: CCRIS mutagenicity, Ames/micronucleus/aberration tests
Assay: CCRIS mutagenicity studies
[1] = Test System: AMES SALMONELLA TYPHIMURIUM, Strain/Indicator: TA98, Metabolic Activation: NONE, Method: STANDARD PLATE
[2] = Test System: AMES SALMONELLA TYPHIMURIUM, Strain/Indicator: TA98, Metabolic Activation: RAT, LIVER, S-9, AROCLOR 1254, Method: STANDARD PLATE
[3] = Test System: AMES SALMONELLA TYPHIMURIUM, Strain/Indicator: TA100, Metabolic Activation: NONE, Method: STANDARD PLATE
[4] = Test System: AMES SALMONELLA TYPHIMURIUM, Strain/Indicator: TA100, Metabolic Activation: RAT, LIVER, S-9, AROCLOR 1254, Method: STANDARD PLATE

Measured: mutagenic call

Cc1cc(O)ccc1Cl
inactive: Test System: AMES SALMONELLA TYPHIMURIUM, Strain/Indicator: TA97, Metabolic Activation: HAMSTER, LIVER, S-9, AROCLOR 1254 (10%), Method: PREINCUBATION inactive; negative | Test System: AMES SALMONELLA TYPHIMURIUM, Strain/Indicator: TA97, Metabolic Activation: HAMSTER, LIVER, S-9, AROCLOR 1254 (30%), Method: PREINCUBATION inactive; negative | Test System: AMES SALMONELLA TYPHIMURIUM, Strain/Indicator: TA97, Metabolic Activation: NONE, Method: PREINCUBATION inactive; negative | Test System: AMES SALMONELLA TYPHIMURIUM, Strain/Indicator: TA97, Metabolic Activation: NONE, Method: STANDARD PLATE inactive; negative | Test System: AMES SALMONELLA TYPHIMURIUM, Strain/Indicator: TA97, Metabolic Activation: RAT, LIVER, S-9, AROCLOR 1254 (10%), Method: PREINCUBATION inactive; negative | Test System: AMES SALMONELLA TYPHIMURIUM, Strain/Indicator: TA97, Metabolic Activation: RAT, LIVER, S-9, AROCLOR 1254 (30%), Method: PREINCUBATION inactive; negative | Test System: AMES SALMONELLA TYPHIMURIUM, Strain/Indicator: TA98, Metabolic Activation: HAMSTER, LIVER, S-9, AROCLOR 1254 (10%), Method: PREINCUBATION inactive; negative | Test System: AMES SALMONELLA TYPHIMURIUM, Strain/Indicator: TA98, Metabolic Activation: HAMSTER, LIVER, S-9, AROCLOR 1254 (30%), Method: PREINCUBATION inactive; negative | Test System: AMES SALMONELLA TYPHIMURIUM, Strain/Indicator: TA98, Metabolic Activation: NONE, Method: PREINCUBATION inactive; negative | [1] inactive; negative | Test System: AMES SALMONELLA TYPHIMURIUM, Strain/Indicator: TA98, Metabolic Activation: RAT, LIVER, S-9, AROCLOR 1254 (10%), Method: PREINCUBATION inactive; negative | Test System: AMES SALMONELLA TYPHIMURIUM, Strain/Indicator: TA98, Metabolic Activation: RAT, LIVER, S-9, AROCLOR 1254 (30%), Method: PREINCUBATION inactive; negative | [2] inactive; negative | Test System: AMES SALMONELLA TYPHIMURIUM, Strain/Indicator: TA100, Metabolic Activation: HAMSTER, LIVER, S-9, AROCLOR 1254 (10%), Method: PREINCUBATION inactive; negative | Test System: AMES SALMONELLA TYPHIMURIUM, Strain/Indicator: TA100, Metabolic Activation: HAMSTER, LIVER, S-9, AROCLOR 1254 (30%), Method: PREINCUBATION inactive; negative | Test System: AMES SALMONELLA TYPHIMURIUM, Strain/Indicator: TA100, Metabolic Activation: NONE, Method: PREINCUBATION inactive; negative | [3] inactive; negative | Test System: AMES SALMONELLA TYPHIMURIUM, Strain/Indicator: TA100, Metabolic Activation: RAT, LIVER, S-9, AROCLOR 1254 (10%), Method: PREINCUBATION inactive; negative | Test System: AMES SALMONELLA TYPHIMURIUM, Strain/Indicator: TA100, Metabolic Activation: RAT, LIVER, S-9, AROCLOR 1254 (30%), Method: PREINCUBATION inactive; negative | [4] inactive; negative | Test System: AMES SALMONELLA TYPHIMURIUM, Strain/Indicator: TA104, Metabolic Activation: NONE, Method: STANDARD PLATE inactive; negative | Test System: AMES SALMONELLA TYPHIMURIUM, Strain/Indicator: TA104, Metabolic Activation: RAT, LIVER, S-9, AROCLOR 1254, Method: STANDARD PLATE inactive; negative | Test System: AMES SALMONELLA TYPHIMURIUM, Strain/Indicator: TA1535, Metabolic Activation: HAMSTER, LIVER, S-9, AROCLOR 1254 (10%), Method: PREINCUBATION inactive; negative | Test System: AMES SALMONELLA TYPHIMURIUM, Strain/Indicator: TA1535, Metabolic Activation: HAMSTER, LIVER, S-9, AROCLOR 1254 (30%), Method: PREINCUBATION inactive; negative | Test System: AMES SALMONELLA TYPHIMURIUM, Strain/Indicator: TA1535, Metabolic Activation: NONE, Method: PREINCUBATION inactive; negative | Test System: AMES SALMONELLA TYPHIMURIUM, Strain/Indicator: TA1535, Metabolic Activation: NONE, Method: STANDARD PLATE inactive; negative | Test System: AMES SALMONELLA TYPHIMURIUM, Strain/Indicator: TA1535, Metabolic Activation: RAT, LIVER, S-9, AROCLOR 1254 (10%), Method: PREINCUBATION inactive; negative | Test System: AMES SALMONELLA TYPHIMURIUM, Strain/Indicator: TA1535, Metabolic Activation: RAT, LIVER, S-9, AROCLOR 1254 (30%), Method: PREINCUBATION inactive; negative | Test System: AMES SALMONELLA TYPHIMURIUM, Strain/Indicator: TA1535, Metabolic Activation: RAT, LIVER, S-9, AROCLOR 1254, Method: STANDARD PLATE inactive; negative | Test System: AMES SALMONELLA TYPHIMURIUM, Strain/Indicator: TA1537, Metabolic Activation: HAMSTER, LIVER, S-9, AROCLOR 1254 (30%), Method: PREINCUBATION inactive; negative | Test System: AMES SALMONELLA TYPHIMURIUM, Strain/Indicator: TA1537, Metabolic Activation: NONE, Method: PREINCUBATION inactive; negative | Test System: AMES SALMONELLA TYPHIMURIUM, Strain/Indicator: TA1537, Metabolic Activation: NONE, Method: STANDARD PLATE inactive; negative | Test System: AMES SALMONELLA TYPHIMURIUM, Strain/Indicator: TA1537, Metabolic Activation: RAT, LIVER, S-9, AROCLOR 1254 (30%), Method: PREINCUBATION inactive; negative | Test System: AMES SALMONELLA TYPHIMURIUM, Strain/Indicator: TA1537, Metabolic Activation: RAT, LIVER, S-9, AROCLOR 1254, Method: STANDARD PLATE inactive; negative
active: Test System: AMES SALMONELLA TYPHIMURIUM, Strain/Indicator: TA97, Metabolic Activation: RAT, LIVER, S-9, AROCLOR 1254, Method: STANDARD PLATE active; positive

CCCCCCCCCCCCC1CCC1=O (configuration not stated)
inactive: Test System: Ames Salmonella typhimurium, Strain/Indicator: TA98, Metabolic Activation: None, Method: Microtiter plate-based Miniscreen assay inactive; negative | Test System: Ames Salmonella typhimurium, Strain/Indicator: TA98, Metabolic Activation: Rat, Liver, S-9, Aroclor 1254 (5%), Method: Microtiter plate-based Miniscreen assay inactive; negative | Test System: Ames Salmonella typhimurium, Strain/Indicator: TA100, Metabolic Activation: None, Method: Microtiter plate-based Miniscreen assay inactive; negative | Test System: Ames Salmonella typhimurium, Strain/Indicator: TA100, Metabolic Activation: Rat, Liver, S-9, Aroclor 1254 (5%), Method: Microtiter plate-based Miniscreen assay inactive; negative | Test System: Ames Salmonella typhimurium, Strain/Indicator: TA1535, Metabolic Activation: None, Method: Microtiter plate-based Miniscreen assay inactive; negative | Test System: Ames Salmonella typhimurium, Strain/Indicator: TA1535, Metabolic Activation: Rat, Liver, S-9, Aroclor 1254 (5%), Method: Microtiter plate-based Miniscreen assay inactive; negative | Test System: Ames Salmonella typhimurium, Strain/Indicator: TA1537, Metabolic Activation: None, Method: Microtiter plate-based Miniscreen assay inactive; negative | Test System: Ames Salmonella typhimurium, Strain/Indicator: TA1537, Metabolic Activation: Rat, Liver, S-9, Aroclor 1254 (5%), Method: Microtiter plate-based Miniscreen assay inactive; negative
active: End Point: In vitro micronucleus, Test System: Human TK6 lymphoblasts, Metabolic Activation: None active; positive (at highest dose) | End Point: In vitro micronucleus, Test System: Human TK6 lymphoblasts, Metabolic Activation: Rat, Liver, S-9, Aroclor (1%) active; positive (at highest dose)

CCCCl
inactive: End Point: In vitro micronucleus, Test System: Chinese Hamster Ovary (CHO-WBL) cells, Metabolic Activation: None inactive; negative

Cc1ccc(Cl)c(N)c1
inactive: Test System: UDS RODENT HEPATOCYTES, Strain/Indicator: THY INCORP (NON-S-PHASE), Metabolic Activation: NONE, Method: AUTORADIOGRAPHY inactive; negative

c1ccc2c(c1)c1ccccc1c1ccccc21
active: Test System: AMES SALMONELLA TYPHIMURIUM, Strain/Indicator: TA98, Metabolic Activation: RAT, LIVER, S-9, AROCLOR 1254, Method: FLUCTUATION active; positive | [4] active; positive

C1CC[CH]([Sn]([CH]2CCCCC2)[CH]2CCCCC2)CC1
inactive: Test System: UDS HUMAN PERIPHERAL BLOOD LYMPHOCYTES, Strain/Indicator: THY INCORP, Metabolic Activation: NONE, Method: LIQUID SCINTILLATION inactive; negative | Test System: UDS HUMAN PERIPHERAL BLOOD LYMPHOCYTES, Strain/Indicator: THY INCORP, Metabolic Activation: RAT, LIVER, S-9, PHENOBARBITAL AND BETA-NAPHTHOFLAVONE, Method: LIQUID SCINTILLATION inactive; negative

COC(=O)C12OC1(C)C(C(C)C)OC2=O (configuration not stated)
inactive: [3] inactive; negative
active: Test System: AMES SALMONELLA TYPHIMURIUM, Strain/Indicator: TA98, Metabolic Activation: NONE, Method: DISK ASSAY active; positive | [1] active; positive | Test System: AMES SALMONELLA TYPHIMURIUM, Strain/Indicator: TA98, Metabolic Activation: RAT, LIVER, S-9, AROCLOR 1254, Method: DISK ASSAY active; positive | [2] active; positive | [4] active; positive
